The values that follow come from publication PMC10288869, “Release of an encrypted, highly potent ACE-inhibitory peptide by enzymatic hydrolysis of moth bean (Vigna aconitifolia) protein” (Frontiers in Nutrition, 2023).

Marks after values point to notes of the source that are not given here. No end group written: not given here.

Data set [1] deals with T1, Angiotensin-converting enzyme (ACE) (Sus scrofa, UniProt F1RRW5).
T1 construct: Angiotensin-converting enzyme (ACE) was extracted and purified from pig lung tissues; from tissue; host or cells: pig lung
T1 sequence (F1RRW5 34-1309): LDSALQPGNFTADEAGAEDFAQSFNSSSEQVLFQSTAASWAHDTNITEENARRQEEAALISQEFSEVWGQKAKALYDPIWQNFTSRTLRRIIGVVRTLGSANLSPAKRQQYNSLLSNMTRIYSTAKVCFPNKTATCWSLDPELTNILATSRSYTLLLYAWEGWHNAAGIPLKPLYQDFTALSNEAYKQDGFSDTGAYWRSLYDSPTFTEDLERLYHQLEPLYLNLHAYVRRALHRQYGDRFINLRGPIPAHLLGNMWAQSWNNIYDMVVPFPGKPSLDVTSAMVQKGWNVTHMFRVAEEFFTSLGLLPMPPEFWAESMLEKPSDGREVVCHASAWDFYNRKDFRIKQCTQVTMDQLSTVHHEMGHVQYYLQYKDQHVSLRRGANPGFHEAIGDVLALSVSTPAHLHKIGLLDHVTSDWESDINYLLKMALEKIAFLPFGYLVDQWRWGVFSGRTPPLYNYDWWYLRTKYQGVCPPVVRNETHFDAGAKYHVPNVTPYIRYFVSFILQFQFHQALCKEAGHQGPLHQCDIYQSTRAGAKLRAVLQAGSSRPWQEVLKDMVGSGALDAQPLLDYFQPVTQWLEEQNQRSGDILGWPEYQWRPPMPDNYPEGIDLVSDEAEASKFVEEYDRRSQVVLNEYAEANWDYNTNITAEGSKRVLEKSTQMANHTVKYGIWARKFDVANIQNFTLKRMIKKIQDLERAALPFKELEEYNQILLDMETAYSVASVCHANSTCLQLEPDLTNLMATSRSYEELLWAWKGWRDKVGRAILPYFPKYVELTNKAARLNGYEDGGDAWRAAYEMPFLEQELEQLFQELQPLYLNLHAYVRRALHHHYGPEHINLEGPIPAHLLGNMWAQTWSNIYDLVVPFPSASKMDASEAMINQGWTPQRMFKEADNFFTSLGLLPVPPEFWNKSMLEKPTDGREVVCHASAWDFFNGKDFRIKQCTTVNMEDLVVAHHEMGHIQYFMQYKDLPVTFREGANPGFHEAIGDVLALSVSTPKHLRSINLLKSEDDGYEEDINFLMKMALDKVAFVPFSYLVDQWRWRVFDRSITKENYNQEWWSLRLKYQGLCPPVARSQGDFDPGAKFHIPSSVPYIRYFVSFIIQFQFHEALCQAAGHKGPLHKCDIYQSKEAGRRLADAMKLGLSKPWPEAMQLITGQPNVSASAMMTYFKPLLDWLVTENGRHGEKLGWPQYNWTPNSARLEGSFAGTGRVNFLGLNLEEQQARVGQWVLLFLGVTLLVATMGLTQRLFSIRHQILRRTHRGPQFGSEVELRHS
Description: ACE inhibition activity determination (HHL substrate, colorimetric). The class given is biochemical, pig. To be noted: for ACE inhibition % (before GI digestion): sample 0.1 mg of peptides/ml, 5 mM HHL, pH 8.3, 37°C, 30 min, absorbance 410 nm, mean ± SD, n = 3. The text has this:
Moth bean seeds (MBS-27 variety) were obtained from Mahatma Phule Krishi Vidyapeeth (MPKV), Rahuri, Maharashtra. Angiotensin-converting enzyme (ACE) was extracted and purified from pig lung tissues according to the protocol described by Abdulazeez Mansurah et al. ([19]). Pig lung tissues were brought from a local slaughterhouse (Deonar Abattoir, Mumbai). Pepsin (1,000 U/mg, from porcine), pancreatin 3x (3 NF/USP, from porcine pancreas), trypsin (>2,000 U/g, from bovine pancreas), and papain (from papaya latex) were purchased from HiMedia Laboratories Pvt. Ltd., Mumbai. HHL (N-Hippuryl- His- Leu hydrate) and captopril were purchased from Sigma–Aldrich Chemicals Private Limited, Bangalore, India. All the chemicals used were of analytical grade.
(§1) Angiotensin-converting enzyme (ACE) inhibition activity was performed according to Jimsheena et al. ([23]), with minor modifications. In brief, 10 μl (0.1 mg of peptides/ml) of the sample was first incubated with 10 μl of ACE at 37°C for 5 min. Later, 30 μl of 50 mM phosphate buffer (pH 8.3) containing 150 mM NaCl and 50 μl of 5 mM HHL was added and mixed completely. The reaction mixture was kept for incubation in a water bath at 37°C for 30 min. The reaction was terminated by adding 100 μl of 1 M HCl. Subsequently, 200 μl of pyridine and 100 μl of benzene sulfonyl chloride (BSC) were added sequentially to the solution and vortexed for 10 s. The reaction mixture was, then, cooled on ice, and the absorbance was measured at 410 nm using a spectrophotometer. Captopril was used as a reference for comparison. ACE inhibition activity (%) was calculated as follows:
ACE inhibition % = (1− As/Ac) x 100
where As is the absorbance of the mixture containing the sample, and Ac is the absorbance of the mixture without inhibitor at 410 nm. IC50 values were determined for each fraction using a plot of ACE activity vs. inhibitor concentration.

Data set [2] deals with T1, Angiotensin-converting enzyme (ACE). Description: Gastrointestinal digestion simulation (SGF, SIF) followed by ACE inhibition assay. In kind it is in vitro ADME, pig. The note with it: for ACE inhibition (%) after SGF: after gastric phase: simulated gastric fluid, pepsin 2,000U/ml, pH 2.5, 2 h; for ACE inhibition (%) after SGF / ACE inhibition (%) After SIF: 37°C, read-out ACE inhibition, mean ± SD, n = 3; for ACE inhibition (%) After SIF: after intestinal phase: simulated intestinal fluid, pancreatin 100U/ml, bile juice, pH 8, 2 h, following gastric phase; for increase in ACE inhibitory activity due to cleavage by pepsin: after gastric phase. On the set-up: increase in ACE inhibitory activity after intestinal digestion simulation / increase in ACE inhibitory activity due to cleavage by pepsin / ACE inhibitory activity decreased to (% of initial) following intestinal digestion simulation: concentration or dose not given beside the values. The method, then:
as §1, with “follows: […]” for “follows:”
The peptides synthesized were subjected to GI digestion simulation, as per the procedure described by Minekus et al. ([24]), with minor modifications. Bile juice was prepared according to Versantvoort et al. ([25]). Three steps of digestion (the mouth, stomach, and small intestine) were simulated, and the fluid was prepared to mimic physiological conditions. The composition of the simulated fluid is presented in Supplementary Table S2. The pH of the solution was adjusted by using 5 N NaOH and 6 N HCl. The digestion process was carried out using a stirring water bath at 37°C. Sampling was carried out after each step of digestion, and % ACE inhibition and degree of hydrolysis were calculated. Enzymes were inactivated by heating the fraction at 90°C for 10 min., followed by centrifugation at 10,000 g at 4°C for 15 min. The supernatant obtained was stored at −20°C for later study.

For data set [3] the target is unchanged. Description: ACE inhibition kinetics (Lineweaver-Burk plot, Dixon plot). In kind it is biochemical, pig. The note with it: HHL 1 to 7.5 mM, peptide 5 and 10 μM. How it is done:
The mechanism of ACE inhibition by a peptide showing the lowest IC50 value was identified by the rate of HHL hydrolysis measured over a range of concentrations (1 to 7.5 mM) by varying concentrations of inhibitory peptide (5 and 10 μM). The analysis was carried out by using a double reciprocal Lineweaver–Burk plot, to determine the mode of ACE inhibition, Michaelis–Menten constant (Km), and the maximum velocity (Vmax). The inhibitor constant (Ki) was determined by the Dixon plot.

The mark [4] stands for this setting: relative to activity before GI digestion.

For AENNQR [pp-25], the “ACE inhibition % (before GI digestion)” value in data set [1] (synthesized peptide) is 11.8 ± 2.9^i %. In data set [2], the “ACE inhibition (%) after SGF” value was 9.8 ± 2.8^i % and the “ACE inhibition (%) After SIF” value is reported as 14.5 ± 0.5^h %.

Take ATDETGSK [pp-33]: the “ACE inhibition % (before GI digestion)” value in data set [1] (synthesized peptide) was 13.1 ± 4.7^h %. In addition, in data set [2], the “ACE inhibition (%) after SGF” value is 15.1 ± 0.6^h % and the “ACE inhibition (%) After SIF” value is 15.6 ± 1.9^h %.

Usually Ki stands for a dissociation constant, usually derived from enzyme kinetics or from competition with a known ligand. Turning to FPPPKVIQ [pp-28], the IC50 was 216 nM in data set [1] (purification steps of ACE-inhibitory peptide, read-out: IC50 (μg/ml) (converted)); 240 nM in data set [1] (synthesized peptide, before GI digestion, read-out: IC50 of ACE inhibition); 20000 nM in data set [2] (after GI digestion simulation (digestion by trypsin in intestinal phase)). The “ACE inhibition % (before GI digestion)” value in data set [1] (synthesized peptide) is 93.4 ± 1.7^a %. For the same substance, in data set [2], the “ACE inhibition (%) after SGF” value is 90.5 ± 4.6^a %. Moreover, the “ACE inhibition (%) After SIF” value in data set [2] is 59.6 ± 0.3^b %; in data set [2] (listed as FPPPKVIQ), ~ 59%. Also, the Ki in data set [3] came out at 810 nM.

As for GDTGRQQ [pp-1], in data set [1] (synthesized peptide), the “ACE inhibition % (before GI digestion)” value is reported as 21.8 ±2.3^g %. In addition, in data set [2], the “ACE inhibition (%) after SGF” value is given as 24.0 ± 5.7^g % and the “ACE inhibition (%) After SIF” value is reported as 7.6 ± 1.2^j %. The “ACE inhibitory activity decreased to (% of initial) following intestinal digestion simulation” value in data set [2] (setting [4]) is 35%.

Take HDTGRQH [pp-8]: in data set [1] (synthesized peptide), the “ACE inhibition % (before GI digestion)” value is given as 12.1 ±5.5^i %. Further, in data set [2], the “ACE inhibition (%) after SGF” value is 11.8 ± 1.3^i % and the “ACE inhibition (%) After SIF” value is on record as 21.3 ± 0.3^g %.

As for HPGDDKS [pp-30], the “ACE inhibition % (before GI digestion)” value in data set [1] (synthesized peptide) was 34.3 ± 7.7^e %. In data set [2], the “ACE inhibition (%) after SGF” value is 31.1 ± 0.7^e % and the “ACE inhibition (%) After SIF” value was 6.2 ± 4.3^j %. Besides, in data set [2] (setting [4]), the “ACE inhibitory activity decreased to (% of initial) following intestinal digestion simulation” value is recorded as 18%.

As to HVDSGK [pp-18], in data set [1] (synthesized peptide), the “ACE inhibition % (before GI digestion)” value is listed as 8.2 ± 4.3^i %. Besides, in data set [2], the “ACE inhibition (%) after SGF” value is 9.6 ± 0.5^i % and the “ACE inhibition (%) After SIF” value was 15.3 ± 3.6^h %. The “increase in ACE inhibitory activity after intestinal digestion simulation” value in data set [2] (setting [4]) is 86%.

For the substance IEPLPPR [pp-16], the “ACE inhibition % (before GI digestion)” value in data set [1] (synthesized peptide) was 36.0 ± 1.9^e %. Further, in data set [2], the “ACE inhibition (%) after SGF” value is 30.0 ± 0.4^f % and the “ACE inhibition (%) After SIF” value is 33.6 ± 3.2^f %.

As for ISGGSSR [pp-39], the “ACE inhibition % (before GI digestion)” value in data set [1] (synthesized peptide) is listed as 23.6 ± 6.9^g %. In data set [2], the “ACE inhibition (%) after SGF” value was 21.1 ± 0.8^g % and the “ACE inhibition (%) After SIF” value was 19.0 ± 1.8^g %.

For the substance LTAEHPVV [pp-44], the “ACE inhibition % (before GI digestion)” value in data set [1] (synthesized peptide) was 6.4 ± 1.0^j %. For the same substance, in data set [2] (setting [4]), the “increase in ACE inhibitory activity due to cleavage by pepsin” value is on record as 236%. Besides, in data set [2], the “ACE inhibition (%) after SGF” value is 21.5 ± 3.4^g % and the “ACE inhibition (%) After SIF” value is listed as 18.8 ± 9.9^g %.

As to NNPHR [pp-24], in data set [1] (synthesized peptide), the “ACE inhibition % (before GI digestion)” value is 47.1 ±6.7^d %. Besides, in data set [2], the “ACE inhibition (%) after SGF” value is given as 41.4 ± 2.2^d % and the “ACE inhibition (%) After SIF” value is listed as 15.0 ± 0.6^h %. Besides, the “reduction in ACE inhibitory activity after intestinal digestion simulation” value in data set [2] (setting [4]) is given as 68%.

Regarding TFAPGF [pp-45], the “ACE inhibition % (before GI digestion)” value in data set [1] (synthesized peptide) is on record as 41.9 ± 6.9^d %. In data set [2] (setting [4]), the “increase in ACE inhibitory activity due to cleavage by pepsin” value is 77%. Moreover, in data set [2], the “ACE inhibition (%) after SGF” value is 74.3 ± 2.2^b % and the “ACE inhibition (%) After SIF” value is given as 17.9 ± 1.8^g %.

For TGDTGR [pp-6], in data set [1] (synthesized peptide), the “ACE inhibition % (before GI digestion)” value is 3.9 ± 5.5^k %. In data set [2], the “ACE inhibition (%) after SGF” value is 3.9 ± 1.3^k % and the “ACE inhibition (%) After SIF” value is given as 4.2 ± 1.3^k %.

Consider TGDTGRQH [pp-4], for which the “ACE inhibition % (before GI digestion)” value in data set [1] (synthesized peptide) was 16.5 ± 2.1^g %. Further, in data set [2], the “ACE inhibition (%) after SGF” value is reported as 18.0 ± 2.9^g % and the “ACE inhibition (%) After SIF” value is on record as 33.6 ± 1.2^f %. In addition, the “increase in ACE inhibitory activity after intestinal digestion simulation” value in data set [2] (setting [4]) is on record as 103%.

Consider VEPLPPR [pp-15], for which the “ACE inhibition % (before GI digestion)” value in data set [1] (synthesized peptide) is reported as 55.9 ± 1.3^c %. In addition, in data set [2], the “ACE inhibition (%) after SGF” value is recorded as 51.0 ± 3.4^c % and the “ACE inhibition (%) After SIF” value was 52.3 ± 3.8^c %.
